± gives the expanded uncertainty stated by the source.
Experiments:
[1] = refractive index (Na D-line) (dimensionless); settings: 100 kPa, Liquid
[2] = for surface tension liquid-gas: Drop volume; for viscosity / mass density: 100 kPa, Liquid; for viscosity: Concentric cylinders viscometry; for mass density: Vibrating tube method
[3] = xn = mol fraction of the nth substance listed; settings: x2 = 0; for surface tension liquid-gas: Drop volume; for viscosity / mass density: 100 kPa, Liquid; for viscosity: Concentric cylinders viscometry; for mass density: Vibrating tube method
[4] = refractive index (Na D-line) (dimensionless); xn = mol fraction of the nth substance listed; settings: 100 kPa, Liquid, x2 = 0

CC(C)CC(C)(C)C [2,2,4-trimethylpentane]
Settings | mass density, [2] [kg/m3] | refractive index, [1] | surface tension liquid-gas, [2] [mN/m] | viscosity, [2] [mPa·s]
293.15 K | 691.91 ± 0.19 | 1.3921 ± 0.0015 | 18.94 ± 0.24 | 0.518 ± 0.083
298.15 K | 687.82 ± 0.19 | 1.3886 ± 0.0015 | 18.39 ± 0.24 | 0.493 ± 0.079
303.15 K | 683.68 ± 0.19 | 1.3876 ± 0.0015 | 17.99 ± 0.24 | 0.47 ± 0.075
308.15 K | 679.51 ± 0.19 | 1.3848 ± 0.0015 | 17.58 ± 0.23 | 0.449 ± 0.072
313.15 K | 675.32 ± 0.19 | 1.3833 ± 0.0015 | – | 0.43 ± 0.069
318.15 K | 671.05 ± 0.19 | 1.3785 ± 0.0015 | – | 0.414 ± 0.066
323.15 K | 666.8 ± 0.2 | 1.376 ± 0.0015 | – | 0.398 ± 0.064
333.15 K | 658.2 ± 0.2 | – | – | 0.371 ± 0.06
343.15 K | 649.44 ± 0.2 | – | – | 0.348 ± 0.056

CC(C)CC(C)(C)C [2,2,4-trimethylpentane] + CC1CCCCC1
Settings | mass density, [3] [kg/m3] | refractive index, [4] | surface tension liquid-gas, [3] [mN/m] | viscosity, [3] [mPa·s]
293.15 K | 691.91 ± 0.19 | 1.3921 ± 0.0015 | 18.94 ± 0.24 | 0.518 ± 0.083
298.15 K | 687.82 ± 0.19 | 1.3886 ± 0.0015 | 18.39 ± 0.24 | 0.493 ± 0.079
303.15 K | 683.68 ± 0.19 | 1.3876 ± 0.0015 | 17.99 ± 0.24 | 0.47 ± 0.075
308.15 K | 679.51 ± 0.19 | 1.3848 ± 0.0015 | 17.58 ± 0.23 | 0.449 ± 0.072
313.15 K | 675.32 ± 0.19 | 1.3833 ± 0.0015 | – | 0.43 ± 0.069
318.15 K | 671.05 ± 0.19 | 1.3785 ± 0.0015 | – | 0.414 ± 0.066
323.15 K | 666.8 ± 0.2 | 1.376 ± 0.0015 | – | 0.398 ± 0.064
333.15 K | 658.2 ± 0.2 | – | – | 0.371 ± 0.06
343.15 K | 649.44 ± 0.2 | – | – | 0.348 ± 0.056

CC(C)CC(C)(C)C [2,2,4-trimethylpentane] + CCC1CCCCC1
Settings | mass density, [3] [kg/m3] | refractive index, [4] | surface tension liquid-gas, [3] [mN/m] | viscosity, [3] [mPa·s]
293.15 K | 691.91 ± 0.19 | 1.3921 ± 0.0015 | 18.94 ± 0.24 | 0.518 ± 0.083
298.15 K | 687.82 ± 0.19 | 1.3886 ± 0.0015 | 18.39 ± 0.24 | 0.493 ± 0.079
303.15 K | 683.68 ± 0.19 | 1.3876 ± 0.0015 | 17.99 ± 0.24 | 0.47 ± 0.075
308.15 K | 679.51 ± 0.19 | 1.3848 ± 0.0015 | 17.58 ± 0.23 | 0.449 ± 0.072
313.15 K | 675.32 ± 0.19 | 1.3833 ± 0.0015 | – | 0.43 ± 0.069
318.15 K | 671.05 ± 0.19 | 1.3785 ± 0.0015 | – | 0.414 ± 0.066
323.15 K | 666.8 ± 0.2 | 1.376 ± 0.0015 | – | 0.398 ± 0.064
333.15 K | 658.2 ± 0.2 | – | – | 0.371 ± 0.06
343.15 K | 649.44 ± 0.2 | – | – | 0.348 ± 0.056

CC(C)CC(C)(C)C [2,2,4-trimethylpentane] + CCCCC1CCCCC1
Settings | mass density, [3] [kg/m3] | refractive index, [4] | surface tension liquid-gas, [3] [mN/m] | viscosity, [3] [mPa·s]
293.15 K | 691.91 ± 0.19 | 1.3921 ± 0.0015 | 18.94 ± 0.24 | 0.518 ± 0.083
298.15 K | 687.82 ± 0.19 | 1.3886 ± 0.0015 | 18.39 ± 0.24 | 0.493 ± 0.079
303.15 K | 683.68 ± 0.19 | 1.3876 ± 0.0015 | 17.99 ± 0.24 | 0.47 ± 0.075
308.15 K | 679.51 ± 0.19 | 1.3848 ± 0.0015 | 17.58 ± 0.23 | 0.449 ± 0.072
313.15 K | 675.32 ± 0.19 | 1.3833 ± 0.0015 | – | 0.43 ± 0.069
318.15 K | 671.05 ± 0.19 | 1.3785 ± 0.0015 | – | 0.414 ± 0.066
323.15 K | 666.8 ± 0.2 | 1.376 ± 0.0015 | – | 0.398 ± 0.064
333.15 K | 658.2 ± 0.2 | – | – | 0.371 ± 0.06
343.15 K | 649.44 ± 0.2 | – | – | 0.348 ± 0.056

CCCCC1CCCCC1 [butylcyclohexane]
Settings | mass density, [2] [kg/m3] | refractive index, [1] | surface tension liquid-gas, [2] [mN/m] | viscosity, [2] [mPa·s]
293.15 K | 799.37 ± 0.15 | 1.4403 ± 0.0015 | 26.81 ± 0.25 | 1.304 ± 0.21
298.15 K | 795.63 ± 0.15 | 1.4377 ± 0.0015 | 25.87 ± 0.24 | 1.199 ± 0.19
303.15 K | 791.88 ± 0.15 | 1.4355 ± 0.0015 | 25.49 ± 0.24 | 1.109 ± 0.18
308.15 K | 788.12 ± 0.15 | 1.4333 ± 0.0015 | 24.73 ± 0.24 | 1.031 ± 0.17
313.15 K | 784.35 ± 0.15 | 1.4314 ± 0.0015 | – | 0.961 ± 0.15
318.15 K | 780.49 ± 0.15 | 1.429 ± 0.0015 | – | 0.9 ± 0.14
323.15 K | 776.7 ± 0.16 | 1.4268 ± 0.0015 | – | 0.844 ± 0.14
333.15 K | 769.09 ± 0.16 | – | – | 0.749 ± 0.12
343.15 K | 761.43 ± 0.16 | – | – | 0.671 ± 0.11

CCC1CCCCC1 [ethylcyclohexane]
Settings | mass density, [2] [kg/m3] | refractive index, [1] | surface tension liquid-gas, [2] [mN/m] | viscosity, [2] [mPa·s]
293.15 K | 787.98 ± 0.15 | 1.4337 ± 0.0015 | 25.47 ± 0.24 | 0.848 ± 0.14
298.15 K | 783.97 ± 0.15 | 1.4301 ± 0.0015 | 24.76 ± 0.24 | 0.793 ± 0.13
303.15 K | 779.93 ± 0.15 | 1.4295 ± 0.0015 | 24.55 ± 0.24 | 0.745 ± 0.12
308.15 K | 775.88 ± 0.15 | 1.4278 ± 0.0015 | 23.74 ± 0.24 | 0.702 ± 0.11
313.15 K | 771.82 ± 0.15 | 1.4259 ± 0.0015 | – | 0.663 ± 0.11
318.15 K | 767.69 ± 0.15 | 1.4204 ± 0.0015 | – | 0.628 ± 0.1
323.15 K | 763.59 ± 0.15 | 1.4187 ± 0.0015 | – | 0.597 ± 0.096
333.15 K | 755.35 ± 0.15 | – | – | 0.541 ± 0.087
343.15 K | 747.03 ± 0.16 | – | – | 0.496 ± 0.08

CC1CCCCC1 [methylcyclohexane]
Settings | mass density, [2] [kg/m3] | refractive index, [1] | surface tension liquid-gas, [2] [mN/m] | viscosity, [2] [mPa·s]
293.15 K | 769.35 ± 0.15 | 1.4232 ± 0.0015 | 23.87 ± 0.24 | 0.735 ± 0.12
298.15 K | 765.05 ± 0.15 | 1.4199 ± 0.0015 | 23.02 ± 0.24 | 0.692 ± 0.11
303.15 K | 760.71 ± 0.15 | 1.419 ± 0.0015 | 22.55 ± 0.24 | 0.651 ± 0.1
308.15 K | 756.37 ± 0.15 | 1.4168 ± 0.0015 | 22.12 ± 0.24 | 0.615 ± 0.099
313.15 K | 752 ± 0.16 | 1.415 ± 0.0015 | – | 0.58 ± 0.093
318.15 K | 747.58 ± 0.16 | 1.4102 ± 0.0015 | – | 0.549 ± 0.088
323.15 K | 743.17 ± 0.16 | 1.4078 ± 0.0015 | – | 0.522 ± 0.084
333.15 K | 734.29 ± 0.16 | – | – | 0.476 ± 0.076
343.15 K | 725.31 ± 0.16 | – | – | 0.439 ± 0.07

From the NIST ThermoML archive (doi:10.1021/acs.jced.5b00105)
